Measured values published in patent publication US9617276B2, “Compounds and methods for treating AIDS and HIV infections” (priority 2009, dated 2017).
“And” between values parts separate entries of the source, which are not always exact repeats. Identical values can stand only once. Like-named read-outs stand apart in the source and are kept apart here.

What was measured:
HIV-2ROD = assay: drug susceptibility, MT-2 cells, MTT assay, HIV-2ROD; assay type: cell-based
Protocol: (§1) All assays were performed in duplicate or triplicate. […] All assays were performed in duplicate or triplicate.
(§2) Each selectivity index denotes a ratio of CC50 to EC50 against HIV-1LAI N.D., not done.

HIV-1286-1μM = assay: microbe, parasite or virus in culture; assay type: cell-based, HIV-1; settings: for EC50: Human immunodeficiency virus 1, MT4, read-out: EC50 (μM), HIV-1286-1 μM; for n-fold change in EC50, HIV-1286-1 μM: compared to wild-type HIV-1NL4-3
Protocol: (§3) Briefly, MT-2 cells (2×10^4/ml) were exposed to 100 50% tissue culture infectious doses (TCID50S) of HIV-1LAI, in the presence or absence of various concentrations of drugs in 96-well microculture plates and were incubated at 37° C. for 7 days. After 100 μl of the medium was removed from each well, 3-(4,5-dimetylthiazol-2-yl)-2,5-diphenyltetrazolium bromide (MTT) solution (10 μl, 7.5 mg/ml in phosphate-buffered saline) was added to each well in the plate, followed by incubation at 37° C. for 3 h. […] All assays were performed in duplicate or triplicate. […] To determine the drug susceptibility of certain laboratory HIV-1 strains, MT-4 cells were used as target cells. In brief, MT-4 cells (10^5/ml) were exposed to 100 TCID50S of drug-resistant HIV-1 strains in the presence or absence of various concentrations of drugs and on day 7 of culture, the supernatant was harvested and the amounts of p24 Gag protein were determined. […] All assays were performed in duplicate or triplicate.
(§4) Numbers in parentheses represent n-fold changes in EC50s for each isolate compared to the EC50s for wild-type HIV-1NL4-3.

HIV-1246-1μM = assay: microbe, parasite or virus in culture; assay type: cell-based, HIV-1; settings: for EC50: Human immunodeficiency virus 1, MT4, read-out: EC50 (μM), HIV-1246-1 μM; for n-fold change in EC50, HIV-1246-1 μM: compared to wild-type HIV-1NL4-3
Protocol: as §3, §4

HIV-1216-P50 = assay: microbe, parasite or virus in culture; assay type: cell-based, HIV-1; settings: for EC50: Human immunodeficiency virus 1, MT4, read-out: EC50 (μM), HIV-1216-p50; for n-fold change in EC50, HIV-1216-p50: compared to wild-type HIV-1NL4-3
Protocol: as §3, §4

HIV-1LAI = assay: drug susceptibility, MT-2 cells, MTT assay, HIV-1LAI; assay type: cell-based; settings: for Selectivity Index: ratio of CC50 to EC50 against HIV-1LAI
Protocol: as §1, §2

cytotoxicity CC50 = assay type: cell-based, Human; settings: human
[1] = tested on: HIV-1ERS104pre (wild-type); assay: p24 Gag inhibition in PHA-PBMCs, HIV-1ERS104pre; assay type: cell-based; settings: mean ± 1 SD
Protocol: (§5) The susceptibility of HIV-1LAI and primary HIV-1 isolates to various drugs were determined as described previously (Koh et al. 2003 Antimicrob Agents Chemother 47:3123-9). Briefly, MT-2 cells (2×10^4/ml) were exposed to 100 50% tissue culture infectious doses (TCID50S) of HIV-1LAI, in the presence or absence of various concentrations of drugs in 96-well microculture plates and were incubated at 37° C. for 7 days. After 100 μl of the medium was removed from each well, 3-(4,5-dimetylthiazol-2-yl)-2,5-diphenyltetrazolium bromide (MTT) solution (10 μl, 7.5 mg/ml in phosphate-buffered saline) was added to each well in the plate, followed by incubation at 37° C. for 3 h. […] All assays were performed in duplicate or triplicate. To determine the susceptibility of primary HIV-1 isolates to drugs, phytohemagglutinin-activated peripheral blood mononuclear cells (PHA-PBMCs; 106/ml) were exposed to 50 TCID50S of each. The target cells were exposed to HIV-1104pre or drug-resistant HIV-1 in the presence or absence of various concentrations of drugs and were incubated for 7 days. Upon the conclusion of the culture, the amounts of p24 Gag protein in the supernatants were determined using a fully automated chemiluminescent enzyme immunoassay system (Lumipulse F; Fujirebio Inc., Tokyo, Japan) (Maeda et al. 2001 J Biol Chem 276:35194-200). To determine the drug susceptibility of certain laboratory HIV-1 strains, MT-4 cells were used as target cells. In brief, MT-4 cells (10^5/ml) were exposed to 100 TCID50S of drug-resistant HIV-1 strains in the presence or absence of various concentrations of drugs and on day 7 of culture, the supernatant was harvested and the amounts of p24 Gag protein were determined. […] All assays were performed in duplicate or triplicate.
(§6) These clinical strains contained 9 to 14 amino acid substitutions in the protease-encoding region, which have reportedly been associated with HIV-1 resistance to various PIs.
(§7) Amino acid substitutions identified in the protease-encoding region compared to the consensus type B sequence cited from the Los Alamos database include L63P in HIV-1ERS104pre; L10I, K14R, L33I, M36I, M46I, F53I, K55R, I62V, L63P, A71V, G73S, V82A, L90M, and I93L in HIV-1MDR/B; L10I, I15V, K20R, L24I, M36I, M46L, I54V, I62V, L63P, K70Q, V82A, and L89M in HIV-1MDR/C; L10I, V11I, T12E, I15V, L19I, R41K, M46L, L63P, A71T, V82A, and L90M in HIV-1MDR/G; L10I, K14R, R41K, M46L, I54V, L63P, A71V, V82A, L90M, I93L in HIV-1MDR/TM; L10I, K43T, M46L, I54V, L63P, A71V, V82A, L90M, and Q92K in HIV-1MDR/MM; L10I, L24I, I33F, E35D, M36I, N37S, M46L, I54V, R57K, I62V, L63P, A71V, G73S, and V82A in HIV-1MDR/JSL. HIV-1ERS104pre served as a source of wild-type HIV-1. EC50s were determined by using PHA-PBMs as target cells, and inhibition of p24 Gag protein production by each drug was used as an end point. Numbers in parentheses represent n-fold changes of EC50s for each isolate compared to EC50s for wild-type HIV-1ERS104pre.

HIV-1MDR/C = assay type: cell-based; settings: for EC50 (μM), HIV-1MDR/C (SI): PHA-PBMCs, p24 Gag; for n-fold change of EC50, HIV-1MDR/C: compared to wild-type HIV-1ERS104pre
Protocol: as §5, §6, §7

HIV-1MDR/B = assay type: cell-based; settings: for EC50 (μM), HIV-1MDR/B (SI): PHA-PBMCs, p24 Gag; for n-fold change of EC50, HIV-1MDR/B: compared to wild-type HIV-1ERS104pre
Protocol: as §5, §6, §7

HIV-1MDR/TM = assay type: cell-based; settings: for EC50 (μM), HIV-1MDR/TM (SI): PHA-PBMCs, p24 Gag; for n-fold change of EC50, HIV-1MDR/TM: compared to wild-type HIV-1ERS104pre
Protocol: as §5, §6, §7

HIV-1MDR/G = assay type: cell-based; settings: for EC50 (μM), HIV-1MDR/G (SI): PHA-PBMCs, p24 Gag; for n-fold change of EC50, HIV-1MDR/G: compared to wild-type HIV-1ERS104pre
Protocol: as §5, §6, §7

[2] = Human immunodeficiency virus 2, MT2, MT-2 cells, MTT assay, mean ± 1 SD, read-out: EC50 (μM) for HIV-2ROD
[3] = Human immunodeficiency virus 1, MT2, MT-2 cells, MTT assay, mean ± 1 SD, read-out: EC50 (μM) for HIV-1LAI
[4] = Human immunodeficiency virus 2, MT2, read-out: EC50 (μM) for HIV-2ROD
[5] = Human immunodeficiency virus 1, MT2, read-out: EC50 (μM) for HIV-1LAI

Row | SMILES | EC50 (HIV-2ROD; [2]) [µM] | EC50 (HIV-1286-1μM) [µM] | EC50 (HIV-1246-1μM) [µM] | EC50 (HIV-1216-P50) [µM] | EC50 (μM), HIV-1ERS104pre (wild-type SI) [1] [µM] | n-fold change in EC50, HIV-1286-1 μM (HIV-1286-1μM) | n-fold change in EC50, HIV-1246-1 μM (HIV-1246-1μM) | n-fold change in EC50, HIV-1216-p50 (HIV-1216-P50) | EC50 (μM), HIV-1MDR/C (SI) (HIV-1MDR/C) [µM] | n-fold change of EC50, HIV-1MDR/C (HIV-1MDR/C) | EC50 (μM), HIV-1MDR/B (SI) (HIV-1MDR/B) [µM] | n-fold change of EC50, HIV-1MDR/B (HIV-1MDR/B) | EC50 (μM), HIV-1MDR/TM (SI) (HIV-1MDR/TM) [µM] | n-fold change of EC50, HIV-1MDR/TM (HIV-1MDR/TM) | EC50 (μM), HIV-1MDR/G (SI) (HIV-1MDR/G) [µM] | n-fold change of EC50, HIV-1MDR/G (HIV-1MDR/G) | EC50 (HIV-2ROD; [4]) [µM] | EC50 (HIV-1LAI; [5]) [µM] | Selectivity Index (HIV-1LAI) | CC50 (cytotoxicity CC50) [µM] | further results
1 | CC(C)CN(C[C@@H](O)[C@H](Cc1ccccc1)NC(=O)O[C@H]1CCOC1)S(=O)(=O)c1ccc(N)cc1 [APV, Amprenavir] | 0.42 ± 0.1 | > 1 | 0.34 ± 0.015 | 0.26 ± 0.03 |  |  |  |  |  |  |  |  |  |  |  |  |  |  |  |  | EC50 (HIV-1LAI; [3]): 0.024 ± 0.008 µM; CC50 (cytotoxicity CC50; MT-2 cells, read-out: CC50): > 100 µM
2 | COC(=O)N[C@H](C(=O)N[C@@H](Cc1ccccc1)[C@@H](O)CN(Cc1ccc(-c2ccccn2)cc1)NC(=O)[C@@H](NC(=O)OC)C(C)(C)C)C(C)(C)C [AZV, Atazanavir] |  | 0.021 ± 0.012 | 0.032 ± 0.003 | 0.014 ± 0.003 | 0.002 ± 0.001 | (7) | (10) | (4) | 0.065 ± 0.008 | (33) | 0.20 ± 0.10 | (100) | 0.065 ± 0.008 | (33) | 0.033 ± 0.024 | (17) |  |  |  |  | 
3 | COc1ccc2c(c1)OCCCC=CCCCCN(CC(O)C(Cc1ccccc1)NC(=O)OC1COC3OCCC13)S2(=O)=O (centres unmarked) [Compound 14b] |  | > 1 | 0.33 ± 0.03 | 0.19 ± 0.06 |  | > 167 | (55) | (32) | 0.029 ± 0.001 | (4) | 0.089 ± 0.016 | (13) | 0.072 ± 0.014 | (10) | 0.028 ± 0.004 | (4) | 0.025 ± 0.002 | 0.004 ± 0.001 | 8,280 | 33.1 ± 2.5 | EC50 (μM), HIV-1ERS104pre (wild-type SI) ([1]; listed as GRL-286): 0.007 µM and 0.007 ± 0.002 µM
4 | COc1ccc2c(c1)OCCC=CCCCCN(CC(O)C(Cc1ccccc1)NC(=O)OC1COC3OCCC13)S2(=O)=O (centres unmarked) [Compound 14c] |  | > 1 | 0.3 ± 0.01 | 0.094 |  |  |  |  |  |  |  |  |  |  |  |  | 0.017 ± 0.001 | 0.002 ± 0.001 |  | 48.8 ± 1.3 | 
5 | Cc1cccc(C)c1OCC(=O)N[C@@H](Cc1ccccc1)[C@@H](O)C[C@H](Cc1ccccc1)NC(=O)[C@H](C(C)C)N1CCCNC1=O [LPV, lopinavir] | 0.028 ± 0.004 | > 1 | 0.33 ± 0.04 | 0.19 ± 0.06 | 0.034 ± 0.002 | > 23 | (8) | (5) | > 1 | > 29 | > 1 | > 29 | > 1 | > 29 | 0.26 ± 0.04 | (8) |  |  | >2,560 | > 100 | EC50 (HIV-1LAI; [3]): 0.039 ± 0.006 µM
6 | CCC[C@@]1(CCc2ccccc2)CC(O)=C([C@H](CC)c2cccc(NS(=O)(=O)c3ccc(C(F)(F)F)cn3)c2)C(=O)O1 [TPV, Tipranavir] |  | 0.037 ± 0.001 | 0.095 ± 0.089 | 0.029 ± 0.0004 | 0.12 ± 0.03 | (0.1) | (0.3) | (0.1) | 0.38 ± 0.079 | (3) | 0.18 ± 0.009 | (2) | 0.38 ± 0.05 | (3) | 0.24 ± 0.08 | (2) | 0.33 ± 0.07 | 0.17 ± 0.005 | 320 |  | 
